{"source": "ChEMBL document CHEMBL4020848", "about": "“Antibacterial Activity Affected by the Conformational Flexibility in Glycine-Lysine Based α-Helical Antimicrobial Peptides” (J Med Chem, 2018)", "key": {"[1]": {"assay": "Cytotoxicity against human peripheral blood leukocytes assessed as cell viability at 0.18 uM after 24 hrs by acridine orange/ethidium bromide staining based fluorescence microscopic method relative to control", "set-up": "species or system Leukocyte", "details": "read-out: Activity"}, "Escherichia coli [2]": {"test_system": "Escherichia coli", "assay": "Induction of membrane permeabilization in Escherichia coli ATCC 25922 assessed as loss of pili/flagella at MIC after 1 hr by atomic force microscopic method", "type": "functional"}, "Escherichia coli [3]": {"test_system": "Escherichia coli", "assay": "Induction of membrane permeabilization in Escherichia coli ATCC 25922 assessed as loss of pili/flagella at MBC after 1 hr by atomic force microscopic method", "type": "functional"}, "Escherichia coli [4]": {"test_system": "Escherichia coli", "assay": "Bactericidal activity against Escherichia coli ATCC 25922 after 18 hrs by microdilution method", "type": "functional", "details": "ATCC 25922, 18 h, read-out: MBC=>99.9"}}, "note": "Active and inactive are the calls of the source. The calls are words filed in the database; no cut-off is given here."}
{"smiles": "CC[C@H](C)[C@H](NC(=O)CN)C(=O)NCC(=O)N[C@@H](C)C(=O)N[C@H](C(=O)N[C@@H](CC(C)C)C(=O)N[C@@H](CCCCN)C(=O)N[C@H](C(=O)N[C@@H](CC(C)C)C(=O)N[C@H](C(=O)N[C@H](C(=O)NCC(=O)N[C@@H](CC(C)C)C(=O)N1CCC[C@H]1C(=O)N[C@@H](C)C(=O)N[C@@H](CC(C)C)C(=O)N[C@H](C(=O)N[C@@H](CO)C(=O)N[C@@H](Cc1c[nH]c2ccccc12)C(=O)N[C@H](C(=O)N[C@@H](CCCCN)C(=O)N[C@@H](CCCNC(=N)N)C(=O)N[C@@H](CCCCN)C(=O)N[C@@H](CCCNC(=N)N)C(=O)N[C@@H](CCC(N)=O)C(=O)N[C@@H](CCC(N)=O)C(N)=O)[C@@H](C)CC)[C@@H](C)CC)[C@@H](C)O)[C@@H](C)O)C(C)C)C(C)C", "note": "[MELITTIN]", "values": [{"measurement": "viability at 24 h, 0.18 µM", "setting": "[1]", "value": 60, "unit": "%"}, {"measurement": "Activity", "setting": "Escherichia coli [2]", "value": "Active"}, {"measurement": "Activity", "setting": "Escherichia coli [3]", "value": "Active"}, {"measurement": "MBC", "setting": "Escherichia coli [4]", "value": 20, "unit": "µM"}]}
